Like-named read-outs stand apart in the source and are kept apart here.
Tests used:
Format in all cases: in vivo
norepinephrine = assay: combined apomorphine, tryptamine, norepinephrine (ATN) test in rats: norepinephrine (NOR), peripheral α-adrenergic antagonism; conditions: Rattus norvegicus, read-out: NOR, ED50
serotonin = assay: combined apomorphine, tryptamine, norepinephrine (ATN) test in rats: tryptamine (TRY), central (convulsions) and peripheral (hyperaemia) serotonin antagonism; conditions: Rattus norvegicus
dopamine = assay: combined apomorphine, tryptamine, norepinephrine (ATN) test in rats: apomorphine (APO), central dopamine antagonism; conditions: Rattus norvegicus, preventing the symptoms elicited with apomorphine
[1] = preventing or delaying death upon administration of norepinephrine, rats, peripheral α-adrenergic antagonism
[2] = preventing central symptoms (convulsions), central serotonin antagonism, read-out: TRY convulsions, ED50
[3] = preventing peripheral symptoms (hyperaemia), peripheral serotonin antagonism, read-out: TRY hyperaemia, ED50

Compound	ED50 (norepinephrine; [1]) [mg/kg]	ED50 (serotonin; [2]) [mg/kg]	ED50 (serotonin; [3]) [mg/kg]	ED50 (dopamine) [mg/kg]	ED50 (norepinephrine) [mg/kg]
Cc1nc2n(c(=O)c1CCN1CCC(n3ccc4cc(F)ccc43)CC1)C(C)CCC2 (centres unmarked) [Compound 29]	5	0.31	0.005	0.08	–
Cc1nc2c(C)cccn2c(=O)c1CCN1CCC(n2ccc3cc(F)ccc32)CC1 [Compound 20]	–	0.63	0.16	0.63	> 10
Cc1nc2n(c(=O)c1CCN1CCC(n3ccc4ccccc43)CC1)CCCS2 [Compound 16]	–	0.63	0.02	0.16	10
Cc1nc2sccn2c(=O)c1CCN1CCC(N2CCc3ccccc32)CC1 [Compound 5]	–	0.31	0.02	0.08	–
Cc1nc2sccn2c(=O)c1CCN1CCC(n2ccc3ccccc32)CC1 [Compound 3, 6-[2-[4-(1H-indol-1-yl)-1-piperidinyl]ethyl]-7-methyl-5H-thiazolo[3,2-a]pyrimidin-5-one]	–	0.16	0.01	0.16	> 10
Cc1nc2n(c(=O)c1CCN1CCC(n3ccc4cc(F)ccc43)CC1)CCS2 [Compound 2]	–	0.63	0.01	0.16	10
Cc1nc2scc(C)n2c(=O)c1CCN1CCC(n2ccc3ccccc32)CC1 [Compound 6, 6-[2-[4-(1H-indol-1-yl)-1-piperidinyl]ethyl]-3,7-dimethyl-5H-thiazolo[3,2-a]pyrimidin-5-one]	–	0.16	0.01	0.16	10
CNc1nc(C)c(CCN2CCC(n3ccc4cc(F)ccc43)CC2)c(=O)n1C [Compound 24, 5-[2-[4-(5-fluoro-1H-indol-1-yl)-1-piperidinyl]ethyl]-3,6-dimethyl-2-(methylamino)-4(3H)-pyrimidinone]	–	0.16	0.01	0.63	10
Cc1nc2n(c(=O)c1CCN1CCC(N3c4ccccc4CC3C)CC1)CCCC2 (centres unmarked) [Compound 34]	–	> 10	≤ 0.63	5	–
Cc1nc2n(c(=O)c1CCN1CCC(N3CCc4ccccc43)CC1)CCCC2 [Compound 31]	–	1.25	0.31	1.25	–
Cc1nc2n(c(=O)c1CCN1CCC(n3ccc4cc(F)ccc43)CC1)CCCC2 [Compound 12, 3-[2-[4-(5-fluoro-1H-indol-1-yl)-1-piperidinyl]ethyl]-6,7,8,9-tetrahydro-2-methyl-4H-pyrido[1,2-a]pyrimidin-4-one]	–	0.31	0.02	0.31	> 10
Cc1nn2c(=O)c(CCN3CCC(n4ccc5cc(F)ccc54)CC3)c(C)nc2s1 [Compound 8, 6-[2-[4-(5-fluoro-1H-indol-1-yl)-1-piperidinyl]-ethyl]-2,7-dimethyl-5H-1,3,4-thiadiazolo[3,2-a]pyrimidin-5-one]	–	0.63	0.04	0.63	10
Cc1nc2c(C)cccn2c(=O)c1CCN1CCC(n2ccc3ccccc32)CC1 [Compound 19]	–	2.5	0.63	0.63	> 10
Cc1nc2ccccn2c(=O)c1CCN1CCC(n2ccc3cc(F)ccc32)CC1 [Compound 18]	5	0.08	0.01	0.08	–
COC1CCCn2c1nc(C)c(CCN1CCC(n3ccc4cc(F)ccc43)CC1)c2=O (centres unmarked) [Compound 15]	–	0.63	0.01	0.16	10
O=C(O)/C=C/C(=O)O.O=c1[nH]c2ccccc2n1CCCN1CCC(n2ccc3cc(F)ccc32)CC1 [Compound 28, 1-[3-[4-(5-fluoro-1H-indol-1-yl)-1-piperidinyl]propyl]-1,3-dihydro-2H-benzimidazol-2-one (E)-2-butenedioate (1:1)]	–	0.16	0.01	–	> 10
Cc1nc2n(c(=O)c1CCN1CCC(n3ccc4ccccc43)CC1)CCS2 [Compound 1, 2,3-dihydro-6[2-[4-(1H-indol-1-yl)-1-piperidinyl]ethyl]-7-methyl-5H-thiazolo[3,2-a]-pyrimidin-5-one]	–	0.63	0.04	0.63	> 10
CCSc1nc(C)c(CCN2CCC(n3ccc4ccccc43)CC2)c(=O)n1C [Compound 25]	–	2.5	0.16	0.63	> 10
Cc1nc2sccn2c(=O)c1CCN1CCC(n2ccc3cc(F)ccc32)CC1 [Compound 4, 6-[2-[4-(5-fluoro-1H-indol-1-yl)-1-piperidinyl]ethyl]-7-methyl-5H-thiazolo[3,2-a]-pyrimidin-5-one]	–	0.04	0.01	0.04	2.5
Cc1cc2nc(C)c(CCN3CCC(n4ccc5cc(F)ccc54)CC3)c(=O)n2o1 [Compound 10]	–	0.16	0.0025	0.63	10
Cc1nc2n(c(=O)c1CCN1CCC(n3ccc4cc(F)ccc43)CC1)CCCS2 [Compound 17]	5	0.16	0.02	0.08	–

Source: patent US5919788A, “4-(1H-indol-1-yl)-1-piperidinyl derivatives” (Janssen Pharmaceutica, N.V., priority 1995, dated 1999)
